pKd: −log10 of the molar value.
Target: T1, BpsDsbA (oxidized) (Burkholderia pseudomallei, UniProt Q63Y08)
T1 construct: gene dsbA
Assay: biochemical

T1 sequence (Q63Y08 16-212 limits assumed): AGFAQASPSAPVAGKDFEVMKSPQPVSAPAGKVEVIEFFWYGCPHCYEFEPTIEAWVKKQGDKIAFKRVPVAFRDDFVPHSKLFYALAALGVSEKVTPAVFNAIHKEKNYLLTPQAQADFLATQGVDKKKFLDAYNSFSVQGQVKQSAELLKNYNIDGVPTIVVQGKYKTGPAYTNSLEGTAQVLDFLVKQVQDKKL

With COc1ccc(S(=O)(=O)Nc2ccccc2)cc1 [compound 2, 4-methoxy-N-phenylbenzenesulfonamide] the pKd was < 2.70.

From PMC8725163 (Acta Crystallographica. Section D, Structural Biology, 2022)
